Measured values from patent US7705029B2 (Synta Pharmaceuticals Corp., priority 2004, dated 2010).

tested on: IL-2 production in a Human Jurkat Cell Line; test: Inhibition of IL-2 production in PHA-stimulated Jurkat cells (IL-2 ELISA); assay type: cell-based; details: Homo sapiens, Jurkat, 20 h, read-out: IC50 (concentration at which IL-2 release is inhibited by 50%)
Procedure: Jurkat cells (ATCC, Cat# TIB-152) were grown in RPMI1640 medium (ATCC, Cat# 30-2001) containing 10% of FBS (ATCC, Cat# 30-2020). For compound screening, Jurkat cells were plated in 96-well plates at a density of 0.5 million cells per well in RPMI1640 medium containing 1% of FBS. Then, various concentrations of each test compound were added to the cell plates followed by addition of PHA (Sigma, Cat# L-9017) at a final concentration of 2.5 μg/ml to stimulate IL-2 production. Cells were then incubated at 37° C. (+5% CO2) for 20 hours before ELISA assay. After 20 hours incubation, cell plates were centrifuged at 500-800 g for 5 minutes and the supernatants was collected for IL-2 detection using the human IL-2 ELISA kit purchased from Cell Sciences (Cat# 851.500.020). The ELISA assay for IL-2 production was done in 96-well plates using a protocol provided by Cell Sciences.
The IC50 (i.e., the concentration at which IL-2 release is inhibited by 50%) was determined and the results are shown in the Table. […] The designation “A” means an IC50 less than 0.010 μM; the designation B means an IC50 between 0.010 and 1.0 μM; and the designation “C” mean an IC50 greater than 1 μM.

Compound	IC50 [µM]
N#CC(=Cc1ccc(-n2ccc(C(F)(F)F)n2)cc1)c1cc(F)ccc1F [Compound 42, 2-(2,5-Difluoro-phenyl)-3-[4-(3-trifluoromethyl-pyrazol-1-yl)-phenyl]-acrylonitrile]	> 1
Cc1cc(C(F)(F)F)n(-c2ccc(C=C(C#N)c3ccc(F)c(F)c3)cc2)n1 [Compound 21, 2-(3,4-Difluoro-phenyl)-3-[4-(3-methyl-5-trifluoromethyl-pyrazol-1-yl)-phenyl]-acrylonitrile]	0.01 to 1
Cc1cc(C(F)(F)F)n(-c2ccc(C=C(C#N)c3c(F)cccc3F)cc2)n1 [Compound 20, 2-(2,6-Difluoro-phenyl)-3-[4-(3-methyl-5-trifluoromethyl-pyrazol-1-yl)-phenyl]-acrylonitrile]	0.01 to 1
N#CC(=Cc1ccc(-n2ccc(C(F)(F)F)n2)cc1)C(=O)c1cccc(F)c1F [Compound 38, 2-(2,3-Difluoro-benzoyl)-3-[4-(3-trifluoromethyl-pyrazol-1-yl)-phenyl]-acrylonitrile]	> 1
N#CC(=Cc1ccc(-n2cccn2)cc1)c1ccccc1F [Compound 48, 2-(2-Fluoro-phenyl)-3-(4-pyrazol-1-yl-phenyl)-acrylonitrile]	> 1
Cc1cc(C(F)(F)F)n(-c2ccc(C=C(C#N)C(=O)c3cc(F)ccc3F)cc2)n1 [Compound 40, 2-(2,5-Difluoro-benzoyl)-3-[4-(3-methyl-5-trifluoromethyl-pyrazol-1-yl)-phenyl]-acrylonitrile]	> 1
Cc1ccn(-c2ccc(C=C(C#N)C(=O)c3ccco3)cc2)n1 [Compound 29, 2-(Furan-2-carbonyl)-3-[4-(3-methyl-pyrazol-1-yl)-phenyl]-acrylonitrile]	> 1
Cc1cc(C(F)(F)F)n(-c2ccc(/C=C(\C#N)c3cc(F)ccc3F)cc2)n1 [Compound 15, 2-(2,5-Difluoro-phenyl)-3-[4-(3-methyl-5-trifluoromethyl-pyrazol-1-yl)-phenyl]-acrylonitrile]	0.01 to 1
N#CC(=Cc1cccc(-n2nc(C(F)(F)F)cc2C(F)(F)F)c1)c1cc(F)ccc1F [Compound 44, 3-[3-(3,5-Bis-trifluoromethyl-pyrazol-1-yl)-phenyl]-2-(2,5-difluoro-phenyl)-acrylonitrile]	> 1
Cc1cc(C(F)(F)F)n(-c2ccc(C=C(C#N)C(=O)c3ccc(F)cc3F)cc2)n1 [Compound 39, 2-(2,4-Difluoro-benzoyl)-3-[4-(3-methyl-5-trifluoromethyl-pyrazol-1-yl)-phenyl]-acrylonitrile]	> 1
N#C/C(=C\c1ccc(-n2nc(C(F)(F)F)cc2C(F)(F)F)cc1)c1cccc(F)c1F [Compound 4, 3-[4-(3,5-Bis-trifluoromethyl-pyrazol-1-yl)-phenyl]-2-(2,3-difluoro-phenyl)-acrylonitrile]	< 0.01
N#CC(=Cc1ccc(-n2ccc(C(F)(F)F)n2)cc1)C(=O)c1cc(F)ccc1F [Compound 41, 2-(2,5-Difluoro-benzoyl)-3-[4-(3-trifluoromethyl-pyrazol-1-yl)-phenyl]-acrylonitrile]	> 1
N#CC(=Cc1ccc(-n2nc(C(F)(F)F)cc2C(F)(F)F)cc1)C(=O)c1ccc(F)cc1F [Compound 34, 3-[4-(3,5-Bis-trifluoromethyl-pyrazol-1-yl)-phenyl]-2-(2,4-difluoro-benzoyl)-acrylonitrile]	> 1
N#CC(=Cc1ccc(-n2cccn2)cc1)c1cc(F)ccc1F [Compound 24, 2-(2,5-Difluoro-phenyl)-3-(4-pyrazol-1-yl-phenyl)-acrylonitrile]	> 1
N#CC(=Cc1ccc(-n2nc(C(F)(F)F)cc2OC(F)F)cc1)c1ccccc1F [Compound 2, 3-[4-(5-Difluoromethoxy-3-trifluoromethyl-pyrazol-1-yl)-phenyl]-2-(2-fluoro-phenyl)-acrylonitrile]	0.01 to 1
Cc1cc(C(F)(F)F)n(-c2ccc(C=C(C#N)c3cc(F)cc(F)c3)cc2)n1 [Compound 22, 2-(3,5-Difluoro-phenyl)-3-[4-(3-methyl-5-trifluoromethyl-pyrazol-1-yl)-phenyl]-acrylonitrile]	0.01 to 1
N#CC(=Cc1ccc(-n2ccc(C(F)(F)F)n2)cc1)C(=O)c1ccc(F)cc1F [Compound 37, 2-(2,4-Difluoro-benzoyl)-3-[4-(3-trifluoromethyl-pyrazol-1-yl)-phenyl]-acrylonitrile]	> 1
N#CC(=Cc1ccc(-n2nc(C(F)(F)F)cc2C(F)(F)F)cc1)c1c(F)ccc(F)c1F [Compound 9, 3-[4-(3,5-Bis-trifluoromethyl-pyrazol-1-yl)-phenyl]-2-(2,3,6-trifluoro-phenyl)-acrylonitrile]	< 0.01
N#CC(=Cc1ccc(-n2ccc(-c3ccccc3)n2)cc1)C(=O)c1cccc(F)c1F [Compound 35, 2-(2,3-Difluoro-benzoyl)-3-[4-(3-phenyl-pyrazol-1-yl)-phenyl]-acrylonitrile]	> 1
N#CC(=Cc1ccc(-n2nc(C(F)(F)F)cc2C(F)(F)F)cc1)c1cc(F)ccc1F [Compound 5, 3-[4-(3,5-Bis-trifluoromethyl-pyrazol-1-yl)-phenyl]-2-(2,5-difluoro-phenyl)-acrylonitrile]	< 0.01
N#CC(=Cc1ccc(-n2cccn2)cc1)c1ccccc1 [Compound 23, 2-Phenyl-3-(4-pyrazol-1-yl-phenyl)-acrylonitrile]	> 1
N#CC(=Cc1ccc(-n2nc(C(F)(F)F)cc2C(F)(F)F)cc1)C(=O)c1ccco1 [Compound 33, 3-[4-(3,5-Bis-trifluoromethyl-pyrazol-1-yl)-phenyl]-2-(furan-2-carbonyl)-acrylonitrile]	> 1
N#CC(=Cc1ccc(-n2cccn2)cc1)C(=O)c1ccccc1 [Compound 30, 2-Benzoyl-3-(4-pyrazol-1-yl-phenyl)-acrylonitrile]	> 1
N#CC(=Cc1ccc(-n2nc(C(F)(F)F)cc2C(F)(F)F)cc1)c1cc(F)c(F)cc1F [Compound 12, 3-[4-(3,5-Bis-trifluoromethyl-pyrazol-1-yl)-phenyl]-2-(3,4,6-trifluoro-phenyl)-acrylonitrile]	0.01 to 1
Cc1cc(C(F)(F)F)n(-c2ccc(C=C(C#N)c3ccc(F)cc3F)cc2)n1 [Compound 19, 2-(2,4-Difluoro-phenyl)-3-[4-(3-methyl-5-trifluoromethyl-pyrazol-1-yl)-phenyl]-acrylonitrile]	0.01 to 1
N#CC(=Cc1ccc(-n2nc(C(F)(F)F)cc2OC(F)F)cc1)c1cc(F)ccc1F [Compound 3, 3-[4-(5-Difluoromethoxy-3-trifluoromethyl-pyrazol-1-yl)-phenyl]-2-(2,5-difluoro-phenyl)-acrylonitrile]	0.01 to 1
N#CC(=Cc1ccc(-n2ccc(C(F)(F)F)n2)cc1)c1ccc(F)cc1F [Compound 16, 2-(2,4-Difluoro-phenyl)-3-[4-(3-trifluoromethyl-pyrazol-1-yl)-phenyl]-acrylonitrile]	> 1
N#C/C(=C\c1ccc(-n2nc(C(F)(F)F)cc2C(F)(F)F)cc1)C(=O)c1cccc(F)c1F [Compound 25, 3-[4-(3,5-Bis-trifluoromethyI-pyrazol-1-yl)-phenyl]-2-(2,3-difluoro-benzoyl)-acrylonitrile]	> 1

same assay, conditions: Jurkat cells, PHA 2.5 μg/ml, 20 hours incubation, human IL-2 ELISA of supernatant; read-out: IC50 (concentration at which IL-2 release is inhibited by 50%)

Compound	IC50 [µM]
N#CC(=Cc1ccc(-n2nc(C(F)(F)F)cc2C(F)(F)F)cc1Cl)c1cccc(F)c1F [Compound 13, 3-[4-(3,5-Bis-trifluoromethyl-pyrazol-1-yl)-2-chloro-phenyl]-2-(2,3-difluoro-phenyl)-acrylonitrile]	> 1
